According to ChEMBL document CHEMBL4804286, “3-amino-4-(4-(4 (dimethylcarbamoyl) phenyl)-1,4-diazepan-1-yl) thieno [2,3-b] pyridine-2-carboxamide for use in cancer therapy and formulations comprising the same” (2020):
Where “and” joins values, the source holds several entries; their conditions need not be identical. Equal entries are not always repeated. Calls of active or inactive are those of the source. The rule behind the calls is not given here.

Assays:
[1] = molecular target: Cyclin-dependent kinase 4/cyclin D1 (Homo sapiens) (UniProt P11802+P24385); assay: Inhibition of human CDK4/cyclin D1 assessed as percent of control at 2000 nM by KINOMEscan assay relative to control; type: protein-complex assay; design: scale not given: the % may be the effect or the level left
[2] = molecular target: Ephrin type-A receptor 8 (Homo sapiens) (UniProt P29322); assay: Inhibition of human EPHA8 assessed as percent of control at 2000 nM by KINOMEscan assay relative to control; design: scale not given: the % may be the effect or the level left
[3] = system: Epidermal growth factor receptor (Homo sapiens), P00533 [UNDEFINED MUTATION]; assay: Inhibition of human EGFR L747-S752del/P753S double mutant assessed as percent of control at 2000 nM by KINOMEscan assay relative to control; design: scale not given: the % may be the effect or the level left
[4] = molecular target: Vascular endothelial growth factor receptor 2 (Homo sapiens) (UniProt P35968); assay: Inhibition of human VEGFR2 assessed as percent of control at 2000 nM by KINOMEscan assay relative to control; design: scale not given: the % may be the effect or the level left
Vascular endothelial growth factor receptor 2 (Homo sapiens), sequence (P35968 whole entry): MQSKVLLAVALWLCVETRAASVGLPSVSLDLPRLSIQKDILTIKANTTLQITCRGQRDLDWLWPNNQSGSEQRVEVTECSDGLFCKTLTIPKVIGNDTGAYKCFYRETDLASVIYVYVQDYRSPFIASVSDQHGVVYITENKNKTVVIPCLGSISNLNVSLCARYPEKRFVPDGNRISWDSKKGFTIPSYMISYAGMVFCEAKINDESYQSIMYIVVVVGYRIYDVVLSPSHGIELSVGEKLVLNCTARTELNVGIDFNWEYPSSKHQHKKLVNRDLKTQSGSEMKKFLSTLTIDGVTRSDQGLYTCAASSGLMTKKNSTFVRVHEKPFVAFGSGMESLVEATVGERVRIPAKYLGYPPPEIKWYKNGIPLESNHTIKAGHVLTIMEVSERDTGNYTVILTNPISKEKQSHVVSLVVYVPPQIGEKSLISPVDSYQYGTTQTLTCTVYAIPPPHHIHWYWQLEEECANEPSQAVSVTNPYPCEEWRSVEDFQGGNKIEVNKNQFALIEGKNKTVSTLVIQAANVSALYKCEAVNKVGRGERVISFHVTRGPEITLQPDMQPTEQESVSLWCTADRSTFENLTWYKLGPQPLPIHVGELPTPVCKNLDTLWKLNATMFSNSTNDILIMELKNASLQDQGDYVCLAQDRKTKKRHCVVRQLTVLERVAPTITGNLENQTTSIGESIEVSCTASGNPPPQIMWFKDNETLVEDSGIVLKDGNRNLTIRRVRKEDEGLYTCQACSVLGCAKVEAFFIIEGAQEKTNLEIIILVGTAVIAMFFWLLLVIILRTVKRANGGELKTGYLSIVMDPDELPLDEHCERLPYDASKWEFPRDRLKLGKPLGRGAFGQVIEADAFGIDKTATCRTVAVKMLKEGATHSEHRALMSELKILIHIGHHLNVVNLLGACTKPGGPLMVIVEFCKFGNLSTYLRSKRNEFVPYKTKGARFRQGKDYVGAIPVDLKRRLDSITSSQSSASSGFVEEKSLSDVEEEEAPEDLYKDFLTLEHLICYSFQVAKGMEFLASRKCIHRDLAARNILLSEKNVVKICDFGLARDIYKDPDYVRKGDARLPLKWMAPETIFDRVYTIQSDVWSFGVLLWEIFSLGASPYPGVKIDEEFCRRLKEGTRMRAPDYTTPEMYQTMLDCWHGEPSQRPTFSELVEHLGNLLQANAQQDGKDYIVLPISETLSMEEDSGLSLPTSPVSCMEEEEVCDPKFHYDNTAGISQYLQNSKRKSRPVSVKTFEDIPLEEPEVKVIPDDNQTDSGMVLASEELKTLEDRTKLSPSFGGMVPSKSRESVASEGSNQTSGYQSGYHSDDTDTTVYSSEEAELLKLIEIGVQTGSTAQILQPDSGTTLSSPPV

[5] = molecular target: Serine/threonine-protein kinase DCLK1 (Homo sapiens) (UniProt O15075); assay: Inhibition of human DCAMKL1 assessed as percent of control at 2000 nM by KINOMEscan assay relative to control; design: scale not given: the % may be the effect or the level left
[6] = molecular target: Serine/threonine-protein kinase WNK2 (Homo sapiens) (UniProt Q9Y3S1); assay: Inhibition of human WNK2 assessed as percent of control at 2000 nM by KINOMEscan assay relative to control; design: scale not given: the % may be the effect or the level left
[7] = molecular target: Bone morphogenetic protein receptor type-1A (Homo sapiens) (UniProt P36894); assay: Inhibition of human BMPR1A assessed as percent of control at 2000 nM by KINOMEscan assay relative to control; design: scale not given: the % may be the effect or the level left
Bone morphogenetic protein receptor type-1A (Homo sapiens), sequence (P36894 whole entry): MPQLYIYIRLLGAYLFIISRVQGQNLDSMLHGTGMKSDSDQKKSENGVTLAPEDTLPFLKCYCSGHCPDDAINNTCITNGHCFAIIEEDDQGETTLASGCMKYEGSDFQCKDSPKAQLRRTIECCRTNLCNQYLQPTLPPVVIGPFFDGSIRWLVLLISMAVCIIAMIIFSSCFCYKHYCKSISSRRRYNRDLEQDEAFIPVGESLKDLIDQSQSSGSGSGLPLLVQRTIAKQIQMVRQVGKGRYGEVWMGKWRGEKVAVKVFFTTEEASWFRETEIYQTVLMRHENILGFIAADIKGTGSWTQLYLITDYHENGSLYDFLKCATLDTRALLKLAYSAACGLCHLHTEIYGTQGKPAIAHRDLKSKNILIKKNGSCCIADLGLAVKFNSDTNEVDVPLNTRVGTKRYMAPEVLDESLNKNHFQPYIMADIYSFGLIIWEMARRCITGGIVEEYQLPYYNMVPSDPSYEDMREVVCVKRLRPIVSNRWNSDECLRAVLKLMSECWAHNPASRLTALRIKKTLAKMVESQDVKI

[8] = molecular target: Ephrin type-B receptor 6 (Homo sapiens) (UniProt O15197); assay: Inhibition of human EPHB6 assessed as percent of control at 2000 nM by KINOMEscan assay relative to control; design: scale not given: the % may be the effect or the level left
Ephrin type-B receptor 6 (Homo sapiens), sequence (O15197 whole entry): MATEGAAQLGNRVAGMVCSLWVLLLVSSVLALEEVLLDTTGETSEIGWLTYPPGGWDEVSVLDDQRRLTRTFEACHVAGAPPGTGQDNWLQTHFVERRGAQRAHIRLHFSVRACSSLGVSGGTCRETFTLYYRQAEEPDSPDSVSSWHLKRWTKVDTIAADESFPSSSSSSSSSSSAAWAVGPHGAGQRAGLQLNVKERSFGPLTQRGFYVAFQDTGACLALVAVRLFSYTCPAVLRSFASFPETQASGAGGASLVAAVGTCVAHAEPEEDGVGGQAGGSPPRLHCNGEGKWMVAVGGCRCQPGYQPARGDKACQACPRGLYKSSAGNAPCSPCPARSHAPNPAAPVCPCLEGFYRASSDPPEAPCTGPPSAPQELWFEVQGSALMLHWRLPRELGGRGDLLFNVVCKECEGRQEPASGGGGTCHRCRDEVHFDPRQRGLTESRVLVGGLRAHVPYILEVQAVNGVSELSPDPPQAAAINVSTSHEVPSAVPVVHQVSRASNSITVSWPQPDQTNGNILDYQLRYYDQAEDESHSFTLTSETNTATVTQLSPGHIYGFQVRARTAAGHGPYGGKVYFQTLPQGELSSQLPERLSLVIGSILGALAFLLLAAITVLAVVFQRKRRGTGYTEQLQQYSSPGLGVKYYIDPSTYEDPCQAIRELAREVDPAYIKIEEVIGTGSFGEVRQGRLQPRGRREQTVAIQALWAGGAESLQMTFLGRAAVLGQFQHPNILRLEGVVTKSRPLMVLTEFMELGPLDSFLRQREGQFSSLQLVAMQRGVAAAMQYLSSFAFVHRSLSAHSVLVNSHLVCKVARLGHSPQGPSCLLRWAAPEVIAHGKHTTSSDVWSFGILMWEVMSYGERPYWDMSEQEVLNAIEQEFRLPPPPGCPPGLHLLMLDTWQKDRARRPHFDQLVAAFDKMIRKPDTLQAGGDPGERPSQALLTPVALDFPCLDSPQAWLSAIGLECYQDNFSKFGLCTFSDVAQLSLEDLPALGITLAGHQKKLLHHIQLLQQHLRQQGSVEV

[9] = molecular target: MAP kinase-interacting serine/threonine-protein kinase 1 (Homo sapiens) (UniProt Q9BUB5); assay: Inhibition of human MKNK1 assessed as percent of control at 2000 nM by KINOMEscan assay relative to control; design: scale not given: the % may be the effect or the level left
[10] = molecular target: Mitogen-activated protein kinase 8 (Homo sapiens) (UniProt P45983); assay: Inhibition of human JNK1 assessed as percent of control at 2000 nM by KINOMEscan assay relative to control; design: scale not given: the % may be the effect or the level left
[11] = system: CWR22R; assay: Antitumor activity against human 22Rv1 cells expressing AR-V7 xenografted in male nude mouse assessed as suppression of tumor growth at 50 mg/kg, po administered daily for 15 days; type: functional, organism-based
[12] = molecular target: Ephrin type-A receptor 7 (Homo sapiens) (UniProt Q15375); assay: Inhibition of human EPHA7 assessed as percent of control at 2000 nM by KINOMEscan assay relative to control; design: scale not given: the % may be the effect or the level left
[13] = molecular target: Mitogen-activated protein kinase kinase kinase 20 (Homo sapiens) (UniProt Q9NYL2); assay: Inhibition of human ZAK assessed as percent of control at 2000 nM by KINOMEscan assay relative to control; design: scale not given: the % may be the effect or the level left
[14] = molecular target: Receptor-type tyrosine-protein kinase FLT3 (Homo sapiens) (UniProt P36888); assay: Inhibition of human FLT3 assessed as percent of control at 2000 nM by KINOMEscan assay relative to control; design: scale not given: the % may be the effect or the level left
[15] = molecular target: Serine/threonine-protein kinase 32A (Homo sapiens) (UniProt Q8WU08); assay: Inhibition of human YANK1 assessed as percent of control at 2000 nM by KINOMEscan assay relative to control; design: scale not given: the % may be the effect or the level left
[16] = molecular target: Phosphatidylinositol 4-phosphate 3-kinase C2 domain-containing subunit beta (Homo sapiens) (UniProt O00750); assay: Inhibition of human PIK3CB assessed as percent of control at 2000 nM by KINOMEscan assay relative to control; design: scale not given: the % may be the effect or the level left
[17] = molecular target: MAP kinase-activated protein kinase 2 (Homo sapiens) (UniProt P49137); assay: Inhibition of human MAPKAPK2 assessed as percent of control at 2000 nM by KINOMEscan assay relative to control; design: scale not given: the % may be the effect or the level left
MAP kinase-activated protein kinase 2 (Homo sapiens), sequence (P49137 whole entry, looked up): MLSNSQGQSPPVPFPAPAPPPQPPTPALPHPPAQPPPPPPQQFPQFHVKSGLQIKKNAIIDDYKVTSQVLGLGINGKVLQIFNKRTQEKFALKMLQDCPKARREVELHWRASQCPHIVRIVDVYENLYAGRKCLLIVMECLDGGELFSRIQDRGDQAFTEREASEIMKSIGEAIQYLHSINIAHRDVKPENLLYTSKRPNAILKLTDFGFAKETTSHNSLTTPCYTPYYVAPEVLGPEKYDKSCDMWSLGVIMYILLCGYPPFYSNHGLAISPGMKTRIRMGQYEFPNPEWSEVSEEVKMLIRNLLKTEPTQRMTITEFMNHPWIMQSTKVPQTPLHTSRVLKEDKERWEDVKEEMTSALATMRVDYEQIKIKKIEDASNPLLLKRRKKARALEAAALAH

[18] = molecular target: RAC-gamma serine/threonine-protein kinase (Homo sapiens) (UniProt Q9Y243); assay: Inhibition of human AKT3 assessed as percent of control at 2000 nM by KINOMEscan assay relative to control; design: scale not given: the % may be the effect or the level left
[19] = molecular target: Tyrosine-protein kinase Lyn (Homo sapiens) (UniProt P07948); assay: Inhibition of human LYN assessed as percent of control at 2000 nM by KINOMEscan assay relative to control; design: scale not given: the % may be the effect or the level left
[20] = molecular target: Focal adhesion kinase 1 (Homo sapiens) (UniProt Q05397); assay: Inhibition of human FAK assessed as percent of control at 2000 nM by KINOMEscan assay relative to control; design: scale not given: the % may be the effect or the level left
[21] = molecular target: Uncharacterized serine/threonine-protein kinase SBK3 (Homo sapiens) (UniProt P0C264); assay: Inhibition of human SgK110 assessed as percent of control at 2000 nM by KINOMEscan assay relative to control; design: scale not given: the % may be the effect or the level left
Uncharacterized serine/threonine-protein kinase SBK3 (Homo sapiens), sequence (P0C264 whole entry): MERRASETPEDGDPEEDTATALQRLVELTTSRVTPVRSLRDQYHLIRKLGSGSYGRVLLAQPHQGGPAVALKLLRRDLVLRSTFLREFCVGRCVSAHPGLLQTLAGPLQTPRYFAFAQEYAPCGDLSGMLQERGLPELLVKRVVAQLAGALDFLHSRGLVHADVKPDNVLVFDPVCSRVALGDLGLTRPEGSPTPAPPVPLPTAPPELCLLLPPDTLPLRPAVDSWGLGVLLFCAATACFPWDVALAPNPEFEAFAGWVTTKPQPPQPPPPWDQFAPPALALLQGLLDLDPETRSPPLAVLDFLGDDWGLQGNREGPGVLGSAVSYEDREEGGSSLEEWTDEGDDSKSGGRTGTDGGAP

[22] = system: Leucine-rich repeat serine/threonine-protein kinase 2 (Homo sapiens), Q5S007 [G2019S]; assay: Inhibition of human LRRK2 G2019S mutant assessed as percent of control at 2000 nM by KINOMEscan assay relative to control; design: scale not given: the % may be the effect or the level left
[23] = molecular target: Inhibitor of nuclear factor kappa-B kinase subunit beta (Homo sapiens) (UniProt O14920); assay: Inhibition of human IKK-beta assessed as percent of control at 2000 nM by KINOMEscan assay relative to control; design: scale not given: the % may be the effect or the level left
[24] = molecular target: Casein kinase I isoform epsilon (Homo sapiens) (UniProt P49674); conditions: INHIBITOR, dose 2000.0 nM
Description: Inhibition of human CSNK1E at 2000 nM by KINOMEscan assay

[25] = molecular target: Serine/threonine-protein kinase PAK 3 (Homo sapiens) (UniProt O75914); assay: Inhibition of human PAK3 assessed as percent of control at 2000 nM by KINOMEscan assay relative to control; design: scale not given: the % may be the effect or the level left
Serine/threonine-protein kinase PAK 3 (Homo sapiens), sequence (O75914 whole entry, looked up): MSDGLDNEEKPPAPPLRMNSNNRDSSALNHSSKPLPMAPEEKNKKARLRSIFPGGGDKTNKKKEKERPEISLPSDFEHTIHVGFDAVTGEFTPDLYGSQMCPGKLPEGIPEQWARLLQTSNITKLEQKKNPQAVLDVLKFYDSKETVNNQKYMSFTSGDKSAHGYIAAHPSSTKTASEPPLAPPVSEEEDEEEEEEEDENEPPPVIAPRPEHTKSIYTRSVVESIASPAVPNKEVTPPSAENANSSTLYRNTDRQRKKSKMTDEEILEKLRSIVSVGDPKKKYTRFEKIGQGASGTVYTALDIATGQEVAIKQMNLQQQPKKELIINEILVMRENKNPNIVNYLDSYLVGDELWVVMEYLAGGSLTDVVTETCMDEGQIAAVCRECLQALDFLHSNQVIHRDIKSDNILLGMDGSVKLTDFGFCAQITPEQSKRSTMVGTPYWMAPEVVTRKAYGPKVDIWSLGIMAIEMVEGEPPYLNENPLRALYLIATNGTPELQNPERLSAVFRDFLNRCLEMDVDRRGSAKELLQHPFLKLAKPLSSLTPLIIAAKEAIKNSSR

[26] = molecular target: Wee1-like protein kinase (Homo sapiens) (UniProt P30291); assay: Inhibition of human WEE1 assessed as percent of control at 2000 nM by KINOMEscan assay relative to control; design: scale not given: the % may be the effect or the level left
Wee1-like protein kinase (Homo sapiens), sequence (P30291 whole entry, looked up): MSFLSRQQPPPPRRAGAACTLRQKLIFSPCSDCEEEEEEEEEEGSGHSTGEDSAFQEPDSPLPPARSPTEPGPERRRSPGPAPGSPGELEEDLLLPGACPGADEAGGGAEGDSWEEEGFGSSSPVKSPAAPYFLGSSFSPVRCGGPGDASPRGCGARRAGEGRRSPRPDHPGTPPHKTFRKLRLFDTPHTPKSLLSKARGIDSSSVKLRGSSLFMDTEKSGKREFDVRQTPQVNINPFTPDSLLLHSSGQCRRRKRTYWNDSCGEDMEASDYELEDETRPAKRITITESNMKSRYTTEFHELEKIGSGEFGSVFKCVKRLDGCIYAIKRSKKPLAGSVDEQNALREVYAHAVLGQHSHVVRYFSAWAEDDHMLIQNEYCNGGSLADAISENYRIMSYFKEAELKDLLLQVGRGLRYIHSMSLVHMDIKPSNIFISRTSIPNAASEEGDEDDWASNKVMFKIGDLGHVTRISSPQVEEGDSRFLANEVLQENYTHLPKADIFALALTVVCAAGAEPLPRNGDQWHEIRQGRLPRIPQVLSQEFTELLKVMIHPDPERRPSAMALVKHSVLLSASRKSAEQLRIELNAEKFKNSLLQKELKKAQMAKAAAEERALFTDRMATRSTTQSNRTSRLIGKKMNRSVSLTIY

[27] = system: Tyrosine-protein kinase ABL1 (Homo sapiens), P00519 [F317I]; assay: Inhibition of non-phosphorylated human ABL1 F317I mutant assessed as percent of control at 2000 nM by KINOMEscan assay relative to control; design: scale not given: the % may be the effect or the level left
[28] = system: Tyrosine-protein kinase ABL1 (Homo sapiens), P00519 [Y253F]; assay: Inhibition of phosphorylated human ABL1 Y253F mutant assessed as percent of control at 2000 nM by KINOMEscan assay relative to control; design: scale not given: the % may be the effect or the level left
[29] = molecular target: Insulin-like growth factor 1 receptor (Homo sapiens) (UniProt P08069); assay: Inhibition of human IGF1R assessed as percent of control at 2000 nM by KINOMEscan assay relative to control; design: scale not given: the % may be the effect or the level left
[30] = molecular target: Fibroblast growth factor receptor 1 (Homo sapiens) (UniProt P11362); assay: Inhibition of human FGFR1 assessed as percent of control at 2000 nM by KINOMEscan assay relative to control; design: scale not given: the % may be the effect or the level left

CN(C)C(=O)c1ccc(N2CCCN(c3ccnc4sc(C(N)=O)c(N)c34)CC2)cc1 was tested, and the Activity [1] was 94% and 96%, the Activity [2] was 94% and 83% and the Activity [3] was 99% and 100%. For the same compound, the Activity [4] was 67% and 84%, the Activity [5] was 100% and 89% and the Activity [6] was 96% and 94%. The Activity [7] was 100%, the Activity [8] was 95% and 89% and the Activity [9] was 94% and 79%. The Activity [10] was 68%, the Activity ([10]; INHIBITOR) was 30% and the Activity [11] was “Active”. The Activity [12] was 92% and 81%, the Activity [13] was 94% and 100% and the Activity [14] was 94% and 86%. The Activity [15] was 89% and 97%, the Activity [16] was 100% and 95% and the Activity [17] was 91% and 99%. The Activity [18] was 97% and 100%, the Activity [19] was 100% and 98% and the Activity [20] was 100% and 96%. For the same compound, the Activity [21] was 95% and 100%, the Activity [22] was 90% and 76% and the Activity [23] was 89% and 71%. For the same compound, the inhibition [24] was > 65%, the Activity [25] was 80% and the Activity ([25]; INHIBITOR) was 40%. The Activity [26] was 100% and 88%, the Activity [27] was 100% and 93% and the Activity [28] was 100% and 81%. For the same compound, the Activity [29] was 92% and 91% and the Activity [30] was 98% and 92%.
